The subject of one test is NF-κB. Nature of the test: NF-κB signaling (Western blot, EMSA) in LPS-stimulated RAW 264.7 cells. Format: cell-based, mouse. The source says:
NF-κB is a transcription factor consisting of p65/p50 and is present in an inactivated state by binding to IκB in the cytoplasm, but when it is stimulated by, for example, LPS, it is activated by a series of processes, including the phosphorylation and degradation of IκB by IκB kinase (IKK). When NF-κB state becomes a free state, it moves into the nucleus and binds to the κB-binding site, thereby regulating the expression of genes, such as iNOS, TNF-α and IL-1β, which are involved in inflammatory reactions. Thus, the effect of the inventive composition on the NF-κB signaling system was tested by Western blot analysis and EMSA.
EMSA was performed in order to examine whether NF-κB moves into the nucleus to bind to DNA.

Another test concerns iNOS. Nature of the test: Expression of iNOS protein and gene (Western blot, RT-PCR) in LPS-stimulated RAW 264.7 cells. Format: cell-based, mouse. As to the method:
The effects of the inventive composition on the expression of iNOS protein and mRNA were examined by Western blot analysis and RT-PCR. Specifically, RAW 264.7 cells were diluted with 10% FBS-containing medium to a density of 1×10^6 cells per 100 mm culture dish and cultured under the conditions of 37° C. and 5% CO2 for 24 hours, followed by washing twice with PBS. The cells were pretreated with each of 20 μM (the highest concentration showing no cytotoxicity), 10 μM and 5 μM of thio-Cl-IB-MECA in 10% FBS-containing medium, and inflammatory reactions in the cells were induced by LPS (1 μg/ml), followed by culture for 18 hours. […] The cells were thawed at 37° C. immediately before use and used in protein quantification and electrophoresis.
Protein quantification was performed using the BCA method, and […] of the protein was electrophoresed on 8-12% SDS-polyacrylamide gel at 150 V for 110 minutes. […] The membrane was washed 2-3 times with PBST for 5 minutes each time, after which HRP-conjugated secondary antibody was diluted at a ratio of 1:1,500-1:2,000 and incubated with the membrane at room temperature for 2-3 hours. the membrane was washed three times with PBST for 5 minutes each time and treated with a Western blot substrate (WESTSAVE Up™), and the produced luminescence was examined using LAS-3000. […]
(In general: Immunoblotting shows a protein as a band on a membrane.)

Test [1] has as its system Wnt signaling-related proteins. In words: PI-3 kinase / Wnt signaling proteins and β-catenin expression in LPS-stimulated RAW 264.7 cells. It counts as cell-based, mouse. As for the experimental part:
A test was carried out to examine the effects of the inventive composition on the expressions of PI-3 kinase (which influences the NF-κB signaling pathway) and Wnt signaling-related proteins in RAW 264.7 cells. Specifically, RAW 264.7 cells were treated with the inventive composition (20 μM thio-Cl-IB-MECA), and after 30 minutes, were stimulated by LPS. At intervals of 5, 15, 30 and 60 minutes after culture, proteins were extracted from all the cells, and the effects of the inventive composition on the expressions of the proteins were measured in comparison with those in the control group treated with only LPS.
In order to examine the intranuclear movement of β-catenin and the accumulation of β-catenin in the cytoplasm, RAW 264.7 cells were treated with each of 5, 10 and 20 μM of the inventive composition (thio-Cl-IB-MECA), and after 30 minutes, the cells were stimulated by LPS. After 1 hour of culture, the cells were collected and separated into a nuclear extract and a cytosol extract. The expressions of β-catenin protein in the cytosol and nuclear portions were analyzed by Western blot, and the results of the analysis are shown in FIG. 7b. […] When no LPS stimulation is applied, β-catenin is degraded by phosphorylation.

Test [2] deals with human colorectal cancer HCT 116 cells. Nature of the test: Cell cycle analysis (FACS) in HCT 116 cells. Format: cell-based. The following applies: 40 μM, 24 and 36 hours. As for the experimental part: Cells were treated with 40 μM of thio-Cl-IB-MECA and cultured for 24 and 36 hours, and the cell cycle of the cells was analyzed by flow cytometer analysis (FACS). Specifically, cells were diluted with 10% FBS-containing medium to a density of 1.0×10^6 cells per 100 mm culture dish and cultured under the conditions of 37° C. and 5% CO2 for 24 hours, followed by washing twice with PBS. Thio-Cl-IB-MECA was diluted in 10% FBS-containing medium to a concentration of 40 μM, and then 10 ml of the culture medium prepared in the 100 mm culture dish was added thereto and cultured for a given time. The non-adherent cells and adherent cells in the cell medium were collected and washed twice with PBS, after which 500 μL of 100% cold methanol was added thereto and the cells were fixed at 4° C. The cells were washed twice with PBS and allowed to stand in RNase A-containing solution for 30 minutes, after which the cells were stained with propidium iodide (PI) buffer for 5 minutes. After removal of the PI buffer, the cells were transferred into a polystyrene round-bottom tube, and the cycle of the cells was analyzed by FACScalibur® flow cytometry.

Where [3] appears, read: 20 μM, LPS stimulation, 5, 15, 30, 60 min.

Structures are written as SMILES.

For `CNC(=O)[C@H]1S[C@@H](n2cnc3c(NCc4cccc(I)c4)nc(Cl)nc32)[C@H](O)[C@@H]1O` [thio-Cl-IB-MECA, 2-chloro-N^6-(3-iodobenzyl)-4′-thioadenosine-5′-N-methyluronamide], the “degradation of IκB protein” value with NF-κB (20 μM, 15 minutes after LPS) is given as “the degradation of IκB protein was inhibited”. In the test on NF-κB (EMSA), the “DNA binding of NF-κB” value was “inhibited the DNA binding of NF-κB” and the “protein bonding of p65 subunit of NF-κB” value is given as “inhibited”. Besides, the “expression of iNOS gene” value with iNOS (RT-PCR, 5, 10 or 20 μM, vs LPS control) is given as “inhibited the expression of iNOS gene in a concentration-dependent manner”. Further, the “expression of iNOS protein” value in the test on iNOS (Western blot, 5, 10, 20 μM, LPS 1 μg/ml, 18 hours) is “inhibited the expression of iNOS protein in a concentration-dependent manner”. For the same molecule, in test [1] (setting [3]), the “expression of p-AKT” value was “also inhibited at 30 min and 60 min”; the “expression of p-GSK 3α/β” value is “inhibited at 30 min and 60 min”. Moreover, in test [1] (5, 10 and 20 μM, LPS, 1 hour), the “expression of p-β-catenin” value was “concentration-dependently inhibited”; the “expressions of β-catenin in the cytosol and nuclear portions” value is “concentration-dependently inhibited”. Further, the “G1 phase of cell cycle, HCT 116” value in test [2] was “an increase in the G1 phase”.

The values above are taken from patent US20140371244A1, “METHOD FOR TREATING PROSTATE CANCER BY USE OF PHARMACEUTICAL COMPOSITION CONTAINING A3 ADENOSINE RECEPTOR AGONIST” (priority 2009, published 2014).
